The source of these data is PubChem BioAssay AID2253 (Southern Research Specialized Biocontainment Screening …, 2010).

One may read the EC50 as the concentration that produces a half-maximal response.

The assay has as its system THP-1 viability, CellTiter-Glo luminescence, 72 h. Put plainly: human monocytic cell viability reduction – S. typhimurium screen hits, cytotoxicity control for Salmonella PhoP regulon inhibitors, dose response (AID 2253).

Turning to `C=C1c2c(Cl)ccc(O)c2C(O)=C2C(=O)[C@]3(O)C(O)=C(C(N)=O)C(=O)[C@@H](N(C)C)[C@@H]3[C@@H](O)C12` (some centres not stated), the concentration for a half-maximal effect (EC50) is 13 µM.

For `O=C(N/N=C/c1c[nH]c2ccccc12)c1cc(-c2ccc3ccccc3c2)n[nH]1`, the EC50 is 3.02 µM. To `Cn1c(-c2ccc3c(c2)OCO3)cnc1NCc1cccc(Cl)c1` belongs 15.5 µM; to `CCCCCn1c(N)c(C(=O)NCc2cccs2)c2nc3ccccc3nc21`, 15.4 µM. With `O=C(Nc1nc2cc3c(cc2s1)OCO3)C1=COCCO1`, the EC50 was 6.67 µM. For `CCOC(=O)N1CCN(C(c2cccnc2)c2ccc3cccnc3c2O)CC1` (configuration not stated), the EC50 is 9.3 µM. Take `CCCCOc1ccc(CSC(=N)N)cc1[N+](=O)[O-]`: the half-maximal effective concentration (EC50) was 16.5 µM. Consider `COc1ccc(NC(C)C(=O)Nc2ccc(C(C)(C)C)cc2)cc1Cl` (configuration not stated), for which the concentration for a half-maximal effect (EC50) is 40.7 µM. Consider `COc1ccc2ccccc2c1/C=N/NC(=O)c1sc(N)c(C#N)c1C`, for which the EC50 is 30.1 µM. As for `CCCC(=O)NC(c1ccc(C)cc1)c1ccc2cccnc2c1O` (configuration not stated), the concentration giving a half-maximal response (EC50) was 0.46 µM. The figure for `COC12C(COC(N)=O)C3=C(C(=O)C(C)=C(N)C3=O)N1CC1C2N1C` (configuration not stated) is 9.05 µM. The figure for `N=C(N)SCc1cn(-c2ccccc2)nc1-c1ccc(Br)cc1` is 4.83 µM; for `O=C(N/N=C/c1ccc(O)cc1O)C(=O)N/N=C/c1ccc(O)cc1O` it is 6.9 µM; for `O=C(CN1CC(c2ccccc2)CC1=O)N/N=C/c1cc(Br)ccc1O` (configuration not stated) it is 3.74 µM. Consider `Cc1ccc(C(C[N+](=O)[O-])c2c(-c3ccccc3O)[nH][nH]c2=O)cc1` (configuration not stated), for which the EC50 is 27.7 µM. Turning to `Cc1scc(C(=O)N/N=C/c2ccc([N+](=O)[O-])o2)c1C`, the concentration giving a half-maximal response (EC50) is 19.9 µM. As for `CN(C)c1ccc(/C=C/c2ccc3c4ccccc4ccc3[n+]2-c2ccccc2)cc1`, the concentration giving a half-maximal response (EC50) was 0.26 µM. As to `FC(F)(F)c1ccc2c(c1)N(CCCN1CCN(CCCl)CC1)c1ccccc1S2`, the EC50 was 20.6 µM. For the molecule `Oc1ccc(N=Cc2ccc(O)c(O)c2)cc1`, the EC50 was 7.64 µM.

In the case of `Cc1cc(/C=N/NC(N)=S)c(C)n1-c1ccc(Cl)c(Cl)c1`, the EC50 is 19.8 µM. The figure for `C=CCN(C(=O)c1cccc(S(=O)(=O)N2CCN(C)CC2)c1)c1nc(-c2ccccc2)cs1` is 49.4 µM. On to `COC(=O)c1c(NC(=O)c2ccc([N+](=O)[O-])o2)sc2c1CCN(C(C)C)C2`, for which the EC50 is 1.2 µM.

On to `COc1cccc(-n2c(SCc3cc(=O)oc4cc(O)c(O)cc34)nc3ccccc3c2=O)c1`, for which the EC50 was 15.1 µM. The figure for `CCN1CCN(C(c2ccc(C(F)(F)F)cc2)c2ccc3cccnc3c2O)CC1` (configuration not stated) is 1.78 µM; for `CN1C(=O)/C(=C/c2cccn2-c2ccc3ccccc3c2)C(=O)NC1=S` it is 16.6 µM. Consider `CCCCCCCCCCCCCCCC[n+]1cccc2ccccc21`, for which the half-maximal effective concentration (EC50) was 0.27 µM. Regarding `C#CCOCCOCCOCCNc1nc(N2CCN(C(=O)CCCCCCCCCCNC(=O)[C@H](CCCN=C(N)N)n3cc(C[C@@H](C)CC)nn3)CC2)nc(N2CCN(C(=O)CCCCCCCCCCNC(=O)[C@@H]([C@H](C)CC)n3cc(CCCCCN)nn3)CC2)n1`, the 50% effective concentration (EC50) was 5.33 µM. With `Cc1ccc(Cn2c(=N)n(CC(=O)c3ccc([N+](=O)[O-])cc3)c3ccccc32)cc1`, the 50% effective concentration (EC50) was 8.18 µM. Take `CN1CCN(CCCN2c3ccccc3Sc3ccc(Cl)cc32)CC1`: the EC50 was 14.1 µM.

On to `c1ccc(Cc2nnc(-c3ccccc3)o2)cc1`, for which the EC50 is 30.7 µM. To `C[C@H]1c2cccc(O)c2C(O)=C2C(=O)[C@]3(O)C(O)=C(C(N)=O)C(=O)[C@@H](N(C)C)[C@@H]3[C@@H](O)[C@@H]21` belongs 27.5 µM; to `c1ccc(C2CNCc3c2ccc2ccccc32)cc1` (configuration not stated), 11 µM; to `CC(NCc1ccc(Cl)c(Cl)c1)C(O)c1ccccc1` (configuration not stated), 40 µM. For `CCCCOc1ccc(Br)cc1CSC(=N)N`, the 50% effective concentration (EC50) is 5.78 µM. The figure for `COc1ccc(-c2cn[nH]c2-c2ccc(OCc3ccc([N+](=O)[O-])cc3)cc2O)cc1` is 15.1 µM; for `CCCCCCCCCCCCCCCCn1cc[n+](C)c1` it is 0.37 µM. In the case of `O=C(N/N=C/c1cc(Cl)ccc1O)c1ccncc1`, the concentration giving a half-maximal response (EC50) was 5.12 µM.
